Literature values in patent US20160374909A9, “Treating Cariogenic diseased oral biofilm with elevated pH” (Dental Alliance Holdings, LLC dba Oral Bio Tech, priority 2006, published 2016).

Columns and labels:
Lactobacilli = details: rinse or varnish
Mutans streptococci = details: rinse or varnish

[H]/N=C(\N/C(=N/[H])NCCCCCCNC(=N)NC(=N)Nc1ccc(Cl)cc1)Nc1ccc(Cl)cc1 [chlorhexidine]
effect against Lactobacilli (Lactobacilli): no effect | effect against Mutans streptococci (Mutans streptococci): effective
